Reference: ChEMBL document CHEMBL3272119, “Adrenergic agents. 8.1 Synthesis and beta-adrenergic agonist activity of some 3-tert-butylamino-2-(substituted phenyl)-1-propanols” (J Med Chem, 1977)

Legend:
[1] = molecular target: Beta-2 adrenergic receptor (Cavia porcellus) (UniProt Q8K4Z4); conditions: Trachea
Description: Agonist activity at beta-2 adrenergic receptor in guinea pig tracheal chain assessed as relaxation of spontaneously contracted tracheal smooth muscle

Cavia porcellus = organism: Cavia porcellus; assay: Selectivity ratio of ED25 for beta-1 adrenergic receptor in guinea pig right atria to ED50 for beta-2 adrenergic receptor in guinea pig tracheal chain
[2] = molecular target: Beta-1 adrenergic receptor (Cavia porcellus) (UniProt B0FL73); assay: Intrinsic activity at beta-1 adrenergic receptor in guinea pig right atria assessed as increase in contraction rate of spontaneously beating right atria relative to isoproterenol
Beta-1 adrenergic receptor (Cavia porcellus), sequence (B0FL73 1-467): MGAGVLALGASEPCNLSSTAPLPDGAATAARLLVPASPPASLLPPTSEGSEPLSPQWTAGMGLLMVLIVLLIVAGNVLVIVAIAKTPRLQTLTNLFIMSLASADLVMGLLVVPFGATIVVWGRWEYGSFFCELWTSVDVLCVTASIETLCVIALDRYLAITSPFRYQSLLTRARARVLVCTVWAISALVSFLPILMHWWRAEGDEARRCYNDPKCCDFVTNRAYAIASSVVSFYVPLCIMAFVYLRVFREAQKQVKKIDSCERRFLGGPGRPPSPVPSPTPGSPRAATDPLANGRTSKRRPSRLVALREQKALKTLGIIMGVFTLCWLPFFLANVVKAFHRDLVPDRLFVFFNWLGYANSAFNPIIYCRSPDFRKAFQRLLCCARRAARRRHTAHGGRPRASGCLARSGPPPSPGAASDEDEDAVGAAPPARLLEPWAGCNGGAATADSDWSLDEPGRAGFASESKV

[3] = molecular target: Beta-1 adrenergic receptor (Cavia porcellus) (UniProt B0FL73)
[4] = molecular target: Beta-1 adrenergic receptor (Cavia porcellus) (UniProt B0FL73); assay: Agonist activity at beta-1 adrenergic receptor in guinea pig right atria assessed as increase in contraction rate of spontaneously beating right atria at 6.3 X 10^-5 M relative to control
[5] = molecular target: Beta-1 adrenergic receptor (Cavia porcellus) (UniProt B0FL73); assay: Agonist activity at beta-1 adrenergic receptor in guinea pig right atria assessed as increase in contraction rate of spontaneously beating right atria at 1.1 X 10^-5 M relative to control

Beta-2 adrenergic receptor (Cavia porcellus), sequence (Q8K4Z4 whole entry, looked up): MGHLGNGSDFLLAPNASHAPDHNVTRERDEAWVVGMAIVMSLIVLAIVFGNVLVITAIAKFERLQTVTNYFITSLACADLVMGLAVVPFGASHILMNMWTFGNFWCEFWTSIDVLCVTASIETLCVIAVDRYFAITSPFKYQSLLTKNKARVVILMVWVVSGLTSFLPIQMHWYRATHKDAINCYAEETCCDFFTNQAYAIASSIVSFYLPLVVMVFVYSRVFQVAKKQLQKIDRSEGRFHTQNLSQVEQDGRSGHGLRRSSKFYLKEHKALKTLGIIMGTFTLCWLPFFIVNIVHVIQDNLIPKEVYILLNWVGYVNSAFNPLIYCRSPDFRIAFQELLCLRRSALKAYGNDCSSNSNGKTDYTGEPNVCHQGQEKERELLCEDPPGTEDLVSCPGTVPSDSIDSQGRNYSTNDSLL

SMILES	ED50 [1]	Selectivity ratio (Cavia porcellus)	Intrinsic activity [2]	ED25 [3]	Activity [5]	Activity [4]
CC(C)NCC(O)c1ccc(O)cc1 (stereo not drawn)	1.1 ×10⁻⁷ M	0.7	0.3	7.7 ×10⁻⁸ M		
CC(C)(C)NCC(CO)c1ccc(O)c(CO)c1 (stereo not drawn)	4.6 µM	10	0.25	4.7 ×10⁻⁵ M		
CC(C)(C)NCC(O)c1ccc(O)c(N)c1 (stereo not drawn)		5.2				
CC(C)(C)NCC(O)c1ccc(O)c(O)c1 (stereo not drawn)	0.0013 µM	5.5	1	0.0071 µM		
CC(C)NCC(C)(O)c1ccc(O)c(O)c1 (stereo not drawn)	3.4 µM					18%
CC(C)(C)NCC(CO)c1ccc(O)c(N)c1 (stereo not drawn)	9.6 ×10⁻⁷ M	1.4	0.7	1.3 µM		
CC(C)(C)NCC(CO)c1ccc(O)cc1 (stereo not drawn)	4.1 µM	24	0.3	9.8 ×10⁻⁵ M		
CC(C)(C)NCC(CO)c1ccc(O)c(O)c1 (stereo not drawn)	3.3 ×10⁻⁸ M	2.9	1	9.6 ×10⁻⁸ M		

Second part, led by results:

ED50 [1]	Selectivity ratio (Cavia porcellus)	Intrinsic activity [2]	ED25 [3]	Activity [5]	SMILES	Activity [4]
1.9 ×10⁻⁸ M	34	0.5	6.4 ×10⁻⁷ M		CC(C)(C)NCC(O)c1ccc(O)c(NC(N)=O)c1 (stereo not drawn)	
1.6 µM			3 ×10⁻⁷ M		COC(CNC(C)C)c1ccc(O)c(O)c1 (stereo not drawn)	
0.0071 µM					CC(C)NCC(O)c1ccc(O)c(O)c1 (stereo not drawn)	
5.2 ×10⁻⁷ M	18	0.3	9.3 µM		CC(C)(C)NCC(CO)c1ccc(O)c(NC(N)=O)c1 (stereo not drawn)	
1.1 ×10⁻⁸ M	28	0.7	3.1 ×10⁻⁷ M		CC(C)(C)NCC(O)c1ccc(O)c(CO)c1 (stereo not drawn)	
2.6 ×10⁻⁸ M	3	0.7	7.6 ×10⁻⁸ M		CC(C)NCC(O)c1ccc(O)c(NS(C)(=O)=O)c1 (stereo not drawn)	
6 ×10⁻⁷ M				18%	CC(C)(C)NCC(CO)c1ccc(O)c(NS(C)(=O)=O)c1 (stereo not drawn)	
